Values of other authors as cited in patent publication US20040120985A1, “Food product for increasing the cognitive functional capacity” (priority 2001, published 2004).

Assays:
[1] = system: cognitive functional capacity; settings: individuals older than 40 years, 100 mg to 300 mg per day
[2] = system: aging brain; settings: animal experimental studies
[3] = oral administration

phosphatidyl serine
cognitive functional capacity [1]: increased | ATPase-dependent ion transport via the cell membrane [2]: improves the ATPase-dependent ion transport via the cell membrane | age-related breakdown of the receptors for the nerve growth factor [2]: partially prevents the age-related breakdown of the receptors for the nerve growth factor | cholesterol/phospholipid ratio in the aging brain [2]: normalizes the cholesterol/phospholipid ratio in the aging brain | neuron atrophy [2]: protects against neuron atrophy | protein kinase C balance [2]: normalizes the protein kinase C balance | formation of nerve growth factors ([2]; effect not identified for other phospholipids): promotes the formation of nerve growth factors | bioavailability [3]: good | passage of the blood-brain barrier ([3]; after passing through the liver): crosses the blood-brain barrier
